Reference: US6426357B1, “Antagonists of follicle stimulating hormone activity” (Affymax, Inc., priority 1999, dated 2002)

Question: For `NC(=O)CCN1C(=O)[C@@H](CC(=O)NCCc2ccc(Br)cc2)S[C@H]1c1ccc(C#Cc2ccccc2)s1` (relative stereo) [Example 13, 3-[(2S*,5R*)-5-{[2-(4-Bromo-phenyl)-ethylcarbamoyl]-methyl}-4-oxo-2-(5-phenylethynyl-thiophen-2-yl)-thiazolidin-3-yl]-propionamide], which melting point is on record?
Answer: 241 to 243 °C
